# Measurements taken from US11214806B2, “Marker, method and kit for observing effect of compound or drug on cells in real time, and use thereof” (priority 2016, dated 2022).
# Entries after “also recorded” stand apart in the source; their conditions may differ.
# How the values were obtained:
# [1] = tested on: VirE2 trafficking in N. benthamiana (Nb308A) leaf epidermal cells; test: Real-time VirE2-GFPcomp trafficking in agroinfiltrated tobacco leaf epidermal cells (split-GFP, confocal microscopy); assay type: cell-based; conditions: for effect on real-time movement process of protein VirE2-GFP / toxicity as judged from VirE2-GFP movement: drug infiltrated into leaf six hours before observation, FIG. 11; for effect on VirE2 trafficking: infiltrated 6 h before observation, control 0.5% DMSO, FIG. 1b-d
# Method: To visualize Agrobacterium-delivered VirE2, agroinfiltration was performed as described previously. Briefly, the bacteria were grown overnight; the cultures were diluted 50 times in MG/L and grown for 6 h. The bacteria were collected and re-suspended in infiltration buffer (10 mM MgCl2, 10 mM MES, pH5.5) to OD600=1.0. The bacterial suspension was infiltrated using a syringe to the underside of fully expended N. benthamiana leaves. The infiltrated plant was placed at 22° C. in a photoperiod of 16 h light/8 h dark. In order to observe a real-time effect of a compound or a drug on cells in real time, the inventor injected and infiltrated the compound or the drug into a leaf injected and infiltrated with A. tumefaciens EHA105virE2::GFP11 cell at an appropriate concentration, and observed with a UPLSAPO×60 N.A. 1.20 water immersion lens under a confocal microscope after six hours.
# A PerkinElmer UltraView Vox Spinning Disk system with EM-CCD cameras was used for confocal microscopy. To observe leaf epidermis, agroinfiltrated leaf tissues were detached from N. benthamiana plants and put in 2% low-melting agarose gel on a glass slide with a coverslip. All images were taken in multiple focal planes (Z-stacks), and were processed to show the extended focus image or 3D opacity view by Volocity® 3D Image Analysis Software 6.2.1.
# FIG. 1 illustrated Agrobacterium-delivered VirE2 trafficking on a cellular structure and entering the nucleus. A. tumefaciens EHA105virE2::GFP11 cells were infiltrated into transgenic N. benthamiana (Nb308A) leaves expressing both GFP1-10 and DsRed. […] Red, free DsRed; Green, VirE2-GFPcomp. (a) Time-lapse images of VirE2 aggregates trafficking along a linear cellular structure and entering the nucleus. Relative time is shown at the top right. Scale bar represents 20 μm. (b) Effects of chemical treatments on VirE2 trafficking. Chemicals were infiltrated into leaf samples 6 h before observation. Control, 0.5% DMSO. Colc, colchicine […] CytoD, cytochalasin D 20 μM. BFA, brefeldin A 100 μg/mL. Scale bar represents 20 μm. (c) Mean velocities of VirE2 aggregate movement after chemical treatments. Data analyzed with ANOVA and Tukey test, p<0.05. (d) Movement tracking of 20 individual VirE2 aggregates plotted to a common origin for each treatment.
# FIG. 4 illustrated effects of ML-7 and myosin-tail overexpression on VirE2 trafficking. (a) Effect of ML-7, a myosin light chain kinase inhibitor, on VirE2 trafficking. A. tumefaciens EHA105virE2::GFP11 cells were infiltrated into transgenic N. benthamiana (Nb308A) leaves expressing both GFP1-10 and DsRed. The leaves were infiltrated with 100 μM ML-7 or 1% DMSO as control 4 h before imaging. […] Red, free DsRed; Green, VirE2-GFPcomp. The movement tracking of 20 individual VirE2 aggregates plotted to a common origin is shown below the figure. Scale bar represents 20 μm. (b) Mean velocity of the VirE2 aggregates after ML-7 treatment. (c) Effects of myosin-tail overexpression on VirE2 trafficking. A. tumefaciens EHA105virE2::GFP11 cells harboring a binary plasmid which encodes a tail fragment of respective myosins downstream of 35S promoter were infiltrated into transgenic N. benthamiana (Nb308A) leaves expressing both GFP1-10 and DsRed. […] Red, free DsRed; Green, VirE2-GFPcomp. The movement tracking of 20 individual VirE2 aggregates plotted to a common origin is shown below the figure. Scale bar represents 20 μm. (d) Mean velocity of VirE2 aggregate movement under overexpression of myosin tails. EV, empty vector control. (e) Western analysis of crude extracts from leaf samples agroinfiltrated with myosin-tail constructs. EV, empty vector control. Myosin tails were HA tagged. GFP1-10 was detected to assess the amount of sample loaded, as shown in the lower panel. […]
# FIG. 11 illustrated an effect of a drug on VirE2 movement. A. tumefaciens EHA105virE2::GFP11 cell was injected and infiltrated into a transgenic tobacco line Nb308A constantly expressing a GFP1-10 and a DsRed. […]
# [2] = tested on: Arabidopsis root transformation; test: Root tumorigenesis assay (Arabidopsis root transformation with tumor inducing strain A348); assay type: cell-based, A. thaliana; conditions: 10 μM ML-7 in co-cultivation mixture, FIG. 9
# Method: Arabidopsis thaliana seeds were surface-sterilized with 0.5% NaClO solution and placed onto solidified ½×MS medium supplemented with 1% sucrose and 0.5 g L^−1 MES, pH 5.8. The plates were then incubated under a 16 hour photoperiod at 25° C. for 10 to 12 days. Roots from individual seedlings were cut into 3-5 mm segments and re-suspended in 1 ml fresh ½×MS medium containing A. tumefaciens cells at a concentration of 5×10^8 cell/ml unless specified otherwise. The mixtures were spread onto a solidified ½×MS plate and subsequently incubated at 25° C. for 2 days. The root segments were aligned onto ½×MS medium plates containing […] cefotaxime and kept at 25° C. for 4 weeks before photographing.
# (§1) FIG. 9 illustrated effects of ML-7 treatment on root tumorigenesis assay. Root segments from 10-day old wild type A. thaliana seedlings were infected with a tumor inducing Agrobacterium stain A348. Tumors were photographed three weeks later. (a) Tumors formed with or without ML-7 treatment. ML-7 was added (10 μM) into the col-cultivation mixture and then washed off when the root segments were transferred onto new plates for tumor formation. (b) Tumorigenesis efficiency as determined by percentage of root segments with tumors. (c) Effect of ML-7 on root segment viability. (d) Effect of ML-7 on Agrobacterium viability
# root segments = test: Effect of ML-7 on root segment viability; assay type: cell-based, A. thaliana; conditions: 10 μM ML-7 for 2 days, in the presence of hormones (auxin and cytokinin); FIG. 9c
# Method: (§2) The inventor wants to determine if the VirE2 movement observed during our studies is directly relevant to Agrobacterium-mediated transformation. The present invention tested the effect of a selective myosin light chain kinase inhibitor ML-7 on Arabidopsis root transformation. Root segments were inoculated with a tumor inducing strain A348 in the presence of 10 μM ML-7. […] The present invention tested the toxicity of ML-7 on either the root or Agrobacterium growth at 10 μM ML-7. The root segments were exposed to 10 μM of ML-7 for 2 days, which was the time span for the bacterium-Arabidopsis co-cultivation.
# as §1
# Agrobacterium = test: Effect of ML-7 on Agrobacterium viability; assay type: cell-based, A. tumefaciens; conditions: 10 μM ML-7
# Method: as §2, §1
# ER = test: Effects of chemicals on cellular structures: ER marker ER-mCherry; assay type: cell-based, N. benthamiana; conditions: 100 μg/mL BFA at 6 h before imaging; tobacco leaves
# Method: (§3) FIG. 5 illustrated effects of chemicals on respective cellular structures. Wild type N. benthamiana leaves were agroinfiltrated with binary plasmids encoding different fluorescent markers. The epidermal cells were examined at 2 d post agroinfiltration under confocal microscope with Olympus UPLSAPO 60×N.A. 1.20 water immersion objective. Upper panels a-c: leaf samples expressing subcellular markers. Lower panels d-f: leaf samples expressing subcellular markers were treated with chemicals. (a) RFP-MBD. MBD, Microtubule Binding Domain. (b) ER-mCherry. (c) tdTomato-ABD2. ABD, Actin Binding Domain. (d) RFP-MBD. Leaf samples were treated with 500 μM colchicine at 6 h before imaging. (e) ER-mCherry. Leaf samples were treated with 100 μg/mL BFA at 6 h before imaging. (f) tdTomato-ABD. Leaf samples were treated with 20 μM cytochalasin D at 6 h before imaging. Scale bar represents 20 μm.
# microtubule = test: Effects of chemicals on cellular structures: microtubule marker RFP-MBD; assay type: cell-based, N. benthamiana; conditions: 500 μM colchicine at 6 h before imaging; tobacco leaves
# Method: as §3
# actin structures = test: Effects of chemicals on cellular structures: actin marker tdTomato-ABD2; assay type: cell-based, N. benthamiana; conditions: 20 μM cytochalasin D at 6 h before imaging; tobacco leaves
# Method: as §3
# [3] = colchicine 500 μM, cytochalasin D 20 μM, brefeldin A 100 μg/mL
smiles,measurement,setting,value
Clc1ccc(COC(Cn2ccnc2)c2ccc(Cl)cc2Cl)cc1 (centres unmarked) [Econazole],effect on real-time movement process of protein VirE2-GFP,[1],significantly affects
same,toxicity as judged from VirE2-GFP movement,[1],highly toxic
CC(=O)N1CCN(c2ccc(OCC3COC(Cn4ccnc4)(c4ccc(Cl)cc4Cl)O3)cc2)CC1 (centres unmarked) [Ketoconazole],effect on real-time movement process of protein VirE2-GFP,[1],does not affect
same,toxicity as judged from VirE2-GFP movement,[1],less toxic
O=S(=O)(c1cccc2c(I)cccc12)N1CCCNCC1 [ML-7],effect on VirE2 movement,"[1]; 100 μM ML-7 infiltrated 4 h before imaging, control 1% DMSO, FIG. 4",obviously stops
same,decrease of average rate of the movement of the VirE2 compared with control group,"[1]; 100 μM ML-7 infiltrated 4 h before imaging, control 1% DMSO, FIG. 4b",95%
same,transformation efficiency (tumorigenesis),[2],significantly reduced
same,growth of root segments,root segments,did not affect
same,Agrobacterium growth,Agrobacterium,did not inhibit
C[C@H]1CCC/C=C/[C@@H]2C[C@H](O)C[C@H]2[C@H](O)/C=C/C(=O)O1 [brefeldin A],effect on VirE2 trafficking,[1]; [3],severely affected
same,effect on ER structure,ER,disrupted
COc1cc2c(c(OC)c1OC)-c1ccc(OC)c(=O)cc1[C@@H](NC(C)=O)CC2 [colchicine],"average velocity of VirE2 movement, relative to the control","[1]; colchicine 500 μM, cytochalasin D 20 μM, brefeldin A 100 μg/mL, 6 h before observation, over 20 events per treatment, FIG. 1c",over 60%
same,effect on VirE2 trafficking,[1]; [3],minor effect; also recorded: did not affect the VirE2 trafficking significantly
same,effect on microtubule structure,microtubule,disrupted
C=C1[C@@H](C)[C@H]2[C@H](Cc3ccccc3)NC(=O)[C@]23[C@H](OC(C)=O)/C=C/[C@@](C)(O)C(=O)[C@@H](C)C/C=C/[C@H]3[C@@H]1O [cytochalasin D],effect on VirE2 trafficking,[1]; [3],severely affected
same,effect on VirE2 trafficking,"[1]; colchicine 500 μM, cytochalasin D 20 μM, brefeldin A 100 μg/mL, listed as CytoD",stop the VirE2 movement
same,effect on actin structure,actin structures,disrupted
